Patent publication US8207137B2, “Method of inhibiting angiogenesis or invasion or formation of metastases” (INSERM, priority 2001, dated 2012)

Key:
[1] = test system: CPAE cells; assay: Formation of capillary structures in fibrin gel, cell aggregates model; assay type: cell-based, bovine; details: 5 μg/ml or 10 μg/ml, 3 days of incubation
Protocol: One of the models used the aggregates of CPAE cells according to the method described by Pepper et al., 1991. In brief, 10,000 CPAE were aggregated for 24 hours on 2% agarose on a 96-well plate. Three aggregates collected and incorporated in a fibrin gel: purified fibrinogen (3 mg/ml; Kabi) was dialyzed against MEM medium then mixed with 20% of FCS, 1% of L-glutamine, 1% of penicillin/streptomycin, 2 μM of aprotinin and AMEP at the desired concentration. Human thrombin (1 IU/ml; Sigma) was then added to obtain a fibrin gel to the surface of which was added the complete medium supplemented by aprotinin (2 μM), with this medium being changed every three days. Formation of capillary structures could be observed after 24 hours of culture. These capillaries were photographed under reverse microscope and the size of these structures was measured on the photographs. The statistical analysis (Mann-Whitney method) made it possible to determine whether the size of these structures was different.

[2] = test system: MDA MB 231 subcutaneous solid tumors; assay: Quantification of tumoral angiogenesis (CD31 immunohistochemistry and image analysis); assay type: in vivo, nude mice
Protocol: The tumor tissues were fixed in ethanol. Sections of 5 μm were prepared in paraffin. The endogenous peroxidase was extinguished by 3% of H2O2 for 10 minutes so that the sections could be used in immunohistochemistry. After washing the sections with distilled water then saturation with 1:10 Optimax serum (BioGenex, San Ramon, Calif.) for 10 minutes, the slides were incubated for 1 h with an anti-CD31 rat antibody (endothelial cell adhesion molecule) at 1:50. After two washings with Optimax for 4 minutes, the slides were incubated with an anti-rat goat polyclonal antibody coupled to biotin (1/50) followed by two 4-minute washings with Optimax. The slides were then treated with a DAB chromogenic substrate for 10 minutes, washed with distilled water, counterstained with Mayer's hematoxylin and mounted on Pertex. All of the slides were immunotagged and counterstained on the same day to ensure a standardized intensity of the tagging.
For each animal, a representative histological sample of the sections tagged with CD31 was subjected to image analysis using an AxiophotZeiss microscope (Germany) and a Sony 3CCD camera (resolution 768×576 pixels). Selection of an enlargement×100 allowed digitization of the totality of the sample. […] The images were analyzed with a specific Linux-based program producing a quantitative index from 0 to 255. […]

[3] = test system: B16F10 cells; assay: Syngenic metastatic tumor model (pulmonary metastases); assay type: in vivo; details: C57B1/6 mice, B16F10 i.v.; AMEP expressed in muscle, doxycycline induction; after 7 days of treatment
Description: The cDNA of AMEP was subcloned at the Eco RV site of the vector pBi (Clonetech, Palo Alto, Calif., USA). The expression of the gene of interest in this vector was under the dependence of a promoter responding to tetracycline in an expression system involving the eukaryote gene Tet-On. The Tet-On vector expresses the transactivator rtTA (reverse tetracycline transcriptional activator) and the vector Tet-tTS expresses the silencer tTS (tetracycline transcriptional silencer). The purifications of the plasmids were performed in a manner such that no endotoxin was present (Maxi endo free Kit, Quiagen). The purified plasmid DNA was dissolved in endotoxin-free sterile 0.9% NaCl at the desired concentration.
20 μg of plasmid pBi-AMEP, 10 μg of plasmid Tet-off and 20 μg of plasmid Tet-on were dissolved in 30 μl of sterile 0.9% NaCl and injected into the tibia cranial muscle of nude or C57B1/6 mice aged 8 weeks and previously anesthetized by intraperitoneal inoculation of pentobarbital as described by Mir et al. (Mir et al., 1999). In brief, 8 electric shocks of 200 V/cm were applied for 20 ms at a frequency of 1 Hz, by means of an electrode to the mouse paw and containing two steel plates. The electrode was connected to an electropulsator PS-15 (Jouan, St Herblain, France). The same plasmids not containing the AMEP gene constituted the negative control. […]

For “AMEP: disintegrin domain of human metargidin (Met-420 to Glu-511, SEQ ID NO. 2), 91 amino acids, 9.7 kDa; recombinant or expressed in vivo by gene electrotransfer”, the “effect on capillary structures” value [1] was “disorganization of capillary structures”, the “statistical index of tumor vascularization, Mean” value ([2]; CD31-tagged tumor sections, index scale 0 to 255, control group 2.96) was 1.38 and the “inhibition of the number of vessels within the tumors” value ([2]; tumors of nude mice treated with AMEP versus control) was 53.4%. For the same substance, the “inhibition of the number of pulmonary metastases” value [3] was 74.2%.
